Source: DBAASP
Converted amounts (≈) assume the structure as drawn. Blank lines part the entries; values can stand above or below the compound they belong to.

Assays:
Assay in all cases: ≥ marks a high value that may be exact or a test limit, other limits are often not marked, values filed in µg/mL are converted to µM
[1] = tested on: Escherichia coli ATCC 25922
Klebsiella pneumoniae = tested on: Klebsiella pneumoniae
Nocardia asteroides = tested on: Nocardia asteroides
Serratia marcescens = tested on: Serratia marcescens
[2] = tested on: Staphylococcus aureus ATCC 2592
[3] = tested on: Candida albicans ATCC 90028
[4] = tested on: Enterobacter cloacae HNTCC 53001
[5] = tested on: Enterococcus faecalis ATCC 29212
[6] = tested on: Klebsiella pneumoniae KK3 9904
[7] = tested on: Proteus mirabilis ATCC 25933
[8] = tested on: Pseudomonas aeruginosa ATCC 27853
[9] = tested on: Staphylococcus aureus NCTC 8325
[10] = tested on: Staphylococcus epidermidis RP62A
[11] = tested on: Candida albicans NCPF 1467
[12] = tested on: Escherichia coli NCTC 10418
[13] = tested on: Staphylococcus aureus ATCC 33591
[14] = tested on: Staphylococcus aureus NCTC 10788
[15] = tested on: Staphylococcus aureus S015
[16] = tested on: Bacillus subtilis ATCC 9372
[17] = tested on: Escherichia coli ATCC 8739
[18] = tested on: Proteus vulgaris NCTC 4635
[19] = tested on: Pseudomonas aeruginosa ATCC 9027
[20] = tested on: Staphylococcus aureus ATCC 6538
Acinetobacter baumannii = tested on: Acinetobacter baumannii
Enterococcus faecalis = tested on: Enterococcus faecalis
Enterococcus gallinarum = tested on: Enterococcus gallinarum
Pseudomonas aeruginosa = tested on: Pseudomonas aeruginosa
Raoultella terrigena = tested on: Raoultella terrigena
[21] = tested on: Aggregatibacter actinomycetemcomitans ATCC 29522
[22] = tested on: Candida albicans ATCC 18804
[23] = tested on: Aspergillus flavus KCTC 7375
[24] = tested on: Bacillus subtilis KCTC 3068
[25] = tested on: Candida albicans KCTC 7121
[26] = tested on: Escherichia coli KCTC 1682
[27] = tested on: Fusarium oxysporum KCTC 6084
[28] = tested on: Pseudomonas aeruginosa KCTC 1637
[29] = tested on: Salmonella typhimurium KCTC 1926
[30] = tested on: Serratia marcescens KCTC 1299
[31] = tested on: Staphylococcus aureus KCTC 1621
[32] = tested on: Streptococcus pyogenes KCTC 3096
[33] = tested on: Trichosporon beigelii KCTC 7251

Compound: CSCC[C@H](NC(=O)[C@@H](NC(=O)[C@H](CCCCN)NC(=O)[C@H](CO)NC(=O)[C@H](C)NC(=O)[C@H](CC(C)C)NC(=O)[C@H](CO)NC(=O)CNC(=O)[C@@H](NC(=O)[C@@H](NC(=O)[C@H](CC(N)=O)NC(=O)[C@H](CCCCN)NC(=O)[C@H](C)NC(=O)[C@H](C)NC(=O)CNC(=O)[C@H](CCCCN)NC(=O)[C@H](CC(C)C)NC(=O)[C@@H](NC(=O)[C@H](CC(=O)O)NC(=O)[C@H](CC(C)C)NC(=O)[C@H](CC(C)C)NC(=O)CN)[C@@H](C)O)C(C)C)C(C)C)C(C)C)C(=O)N[C@@H](CCC(=O)O)C(=O)N[C@@H](CCCCN)C(=O)N[C@@H](CC(C)C)C(N)=O [GLLDTLKGAAKNVVGSLASKVMEKL]
MIC [3]: ≥ 200 µM | MIC [4]: ≥ 50 µM | MIC [5]: 200 µM (≈ 508 µg/mL) | MIC [1]: 25 µM (≈ 63.6 µg/mL) | MIC [6]: ≥ 100 µM | MIC [7]: ≥ 200 µM | MIC [8]: 100 µM (≈ 254 µg/mL) | MIC [9]: ≥ 200 µM | MIC [10]: ≥ 100 µM

Compound: CC[C@H](C)[C@H](NC(=O)[C@H](CC(C)C)NC(=O)CNC(=O)[C@@H]1CCCN1C(=O)[C@@H](NC(=O)[C@H](CCSC)NC(=O)CNC(=O)[C@H](CC(C)C)NC(=O)[C@@H](N)Cc1ccccc1)[C@@H](C)CC)C(=O)NCC(=O)NCC(=O)N[C@@H](CC(C)C)C(=O)N[C@H](C(=O)N[C@@H](CO)C(=O)N[C@@H](C)C(=O)N[C@@H](Cc1ccccc1)C(=O)N[C@@H](CCCCN)C(=O)O)[C@@H](C)CC [FLGMIPGLIGGLISAFK]
MIC [11]: 10 µM (≈ 17.3 µg/mL) | MIC [5]: 39.9 µM (≈ 69.2 µg/mL) | MIC [12]: ≥ 320 µM | MIC [13]: 9.98 µM (≈ 17.3 µg/mL) | MIC [14]: 5 µM (≈ 8.67 µg/mL) | MIC [15]: 9.98 µM (≈ 17.3 µg/mL)

Compound: CC[C@H](C)[C@H](NC(=O)[C@H](CC(=O)O)NC(=O)[C@H](CCCCN)NC(=O)[C@H](C)NC(=O)[C@H](C)NC(=O)CNC(=O)[C@H](CCCCN)NC(=O)[C@H](CC(C)C)NC(=O)[C@@H](NC(=O)[C@H](CC(=O)O)NC(=O)[C@@H](NC(=O)[C@@H](NC(=O)CN)C(C)C)C(C)C)[C@@H](C)CC)C(=O)N[C@@H](C)C(=O)NCC(=O)N[C@@H](Cc1cnc[nH]1)C(=O)N[C@@H](CC(C)C)C(=O)N[C@@H](C)C(=O)N[C@@H](CO)C(=O)N[C@@H](CCCCN)C(=O)N[C@H](C(=O)N[C@@H](CCSC)C(N)=O)C(C)C [GVVDILKGAAKDIAGHLASKVM]
MIC [21]: ≥ 222 µM | MIC [22]: ≥ 234 µM | MIC [1]: 114 µM (≈ 250 µg/mL)

Compound: CC[C@H](C)[C@H](NC(=O)[C@H](CCCCN)NC(=O)[C@H](CCCCN)NC(=O)[C@H](Cc1ccccc1)NC(=O)[C@H](CC(C)C)NC(=O)[C@H](CCCCN)NC(=O)[C@H](Cc1c[nH]c2ccccc12)NC(=O)[C@H](CCCCN)NC(=O)[C@@H]1CCCN1C(=O)[C@H](Cc1ccccc1)NC(=O)[C@H](CCCCN)NC(=O)[C@H](CCCCN)NC(=O)[C@H](C)NC(=O)[C@H](CC(C)C)NC(=O)[C@H](Cc1cnc[nH]1)NC(=O)[C@H](CC(C)C)NC(=O)[C@H](Cc1ccccc1)NC(=O)[C@@H](N)CCCCN)C(N)=O [KFLHLAKKFPKWKLFKKI]
MIC [23]: 25 µM (≈ 57.5 µg/mL) | MIC [24]: 0.78 µM (≈ 1.79 µg/mL) | MIC [25]: 12.5 µM (≈ 28.7 µg/mL) | MIC [26]: 3.13 µM (≈ 7.2 µg/mL) | MIC [27]: 25 µM (≈ 57.5 µg/mL) | MIC [28]: 1.56 µM (≈ 3.59 µg/mL) | MIC [29]: 1.56 µM (≈ 3.59 µg/mL) | MIC [30]: 3.13 µM (≈ 7.2 µg/mL) | MIC [31]: 1.56 µM (≈ 3.59 µg/mL) | MIC [32]: 3.13 µM (≈ 7.2 µg/mL) | MIC [33]: 12.5 µM (≈ 28.7 µg/mL)

Results, then the compound that gave them:

MIC [1]: > 60.1 µM | MIC (Klebsiella pneumoniae): > 60.1 µM | MIC (Nocardia asteroides): 5.64 µM (≈ 9.37 µg/mL) | MIC (Serratia marcescens): ≥ 60.1 µM | MIC [2]: 5.64 µM (≈ 9.37 µg/mL)
Compound: CC[C@H](C)[C@@H]1NC(=O)[C@H](CCCCN)NC(=O)[C@@H](NC(=O)[C@H](CCSC)NC(=O)[C@@H](NC(=O)[C@H](CC(C)C)NC(=O)[C@@H]2CCCN2C(=O)[C@H](CC(C)C)NC(=O)[C@@H](NC(=O)[C@@H](N)Cc2ccccc2)C(C)C)C(C)C)CSSC[C@@H](C(=O)O)NC(=O)[C@H](CCCCN)NC(=O)[C@H](CCCN=C(N)N)NC(=O)[C@H](CC(C)C)NC1=O [FVLPLVMCKILRKC]

MIC [16]: ≥ 908 µM | MIC [17]: ≥ 908 µM | MIC [18]: ≥ 908 µM | MIC [19]: > 908 µM | MIC [20]: > 908 µM
Compound: CC[C@H](C)[C@H](NC(=O)[C@@H](NC(=O)[C@H](CO)NC(=O)[C@H](C)NC(=O)[C@@H](NC(=O)[C@H](CCCCN)NC(=O)[C@H](CCCCN)NC(=O)[C@@H](NC(=O)[C@@H](NC(=O)[C@@H](N)CC(=O)O)C(C)C)[C@@H](C)CC)C(C)C)C(C)C)C(=O)NCC(=O)O [DVIKKVASVIG]

MIC (Acinetobacter baumannii): 26.3 µM (≈ 13.7 µg/mL) | MIC (Enterococcus faecalis): ≥ 53.8 µM | MIC (Enterococcus gallinarum): 26.3 µM (≈ 13.7 µg/mL) | MIC (Pseudomonas aeruginosa): 26.3 µM (≈ 13.7 µg/mL) | MIC (Raoultella terrigena): 26.3 µM (≈ 13.7 µg/mL)
Compound: CSCC[C@H](NC(=O)[C@H](C)NC(C)=O)C(=O)N[C@H](C(=O)NCC(=O)N[C@H](C(=O)O)[C@@H](C)O)C(C)C [AMVGT]
